For assay [1] the following is noted: reported, Kodama et al. 1997; cited from earlier work.
Assay [2] can be described thus: Induction of diabetes by streptozotocin. It is filed as in vivo, rat. The settings on record: three days following STZ injection, 55 mg·kg^−1 i.v., mean ± SEM. The source says: In order to induce diabetes, male Wistar rats (n=28, 303±2.9 g) were divided randomly into diabetic and nondiabetic groups. […] Nondiabetic animals received an equivalent volume of saline. […] Blood glucose and body weight were measure at day 3 following STZ/saline injection and then weekly throughout the study. Diabetes was identified by polydipsia, polyuria and hyperglycemia (>11 mmol·l^−1, Advantage II, Roche Diagnostics, NZ Ltd).

`CC(=O)NCCNCCNCCN.Cl` [N-acetyl-trientine hydrochloride]: the “Chelating activity compared with trientine dihydrochloride” value in assay [1] is “significantly lower”. As to `CN(N=O)C(=O)N[C@H]1C(O)O[C@H](CO)[C@@H](O)[C@@H]1O` (mixture of isomers) [STZ, streptozotocin], in assay [2], the Blood glucose turned out to be 25 ± 2 mmol/L.

The values above are taken from patent publication US10543178B2, “Dosage forms and related therapies” (PhilERA New Zealand Limited, priority 2002, dated 2020).
